# Data from patent publication US12370170B2, “Composition comprising naphthoquinone-based compound as active ingredient, for preventing or ameliorating fatigue, cachexia, pain, cognitive decline and hematopoietic stem cell reduction which are side effects related to anticancer drug treatment” (NADIANBIO LTD., priority 2016, dated 2025).
# Assays:
# [1] = tested on: F4/80 positive cells (macrophages); assay: Inflow of macrophages into femur, F4/80 immunohistostaining, 4×ACP animal model; format: in vivo, C57BL/6 mice; conditions: dunnione 80 mg/kg oral
# Method: In this invention, 11 weeks old C57BL/6 mice were used. All the mice used in the experiments of the invention were raised in an aseptic animal room at the temperature of 22˜26 L with the humidity of 55˜60%. The mice were allowed to take general solid feed (SAMTACO Co., Ltd., Korea) and water freely. The mice were adapted for 1 week before the experiment. All the experiments were performed after obtaining approval from the clinical trial management committee in accordance with the laboratory animal care and ethics regulations of Wonkwang University. The mouse animal model of the present invention was treated with different anticancer drugs. Particularly, one kind of anticancer drug was administered intraperitoneally one time or more, or several kinds of anticancer drugs were administered once or more times or at different concentrations, leading to the establishment of the animal model of the invention. In the adriamycin-induced animal model, the mice were divided into 6 groups as follows: the control group administered with PBS (Control, 5 mice), the group administered intraperitoneally with adriamycin (4 mg/kg/day) 3 times (ADR, 5 mice), the group administered orally with dunnione or β-lapachone from 3 days before the adriamycin treatment daily (20 mg/kg, 5 mice), and the group administered with dunnione or β-lapachone (20 mg/kg, 5 mice). […]
# [2] = tested on: inflammatory cytokines TNF-α and IL-1β; assay: Brain inflammatory response: TNF-α and IL-1β in hypothalamus (RT-PCR, ELISA), 4×ACP animal model; format: in vivo, C57BL/6 mice; conditions: dunnione 80 mg/kg oral
# Method: In this invention, 11 weeks old C57BL/6 mice were used. All the mice used in the experiments of the invention were raised in an aseptic animal room at the temperature of 22˜26 L with the humidity of 55˜60%. The mice were allowed to take general solid feed (SAMTACO Co., Ltd., Korea) and water freely. The mice were adapted for 1 week before the experiment. All the experiments were performed after obtaining approval from the clinical trial management committee in accordance with the laboratory animal care and ethics regulations of Wonkwang University. The mouse animal model of the present invention was treated with different anticancer drugs. Particularly, one kind of anticancer drug was administered intraperitoneally one time or more, or several kinds of anticancer drugs were administered once or more times or at different concentrations, leading to the establishment of the animal model of the invention. In the adriamycin-induced animal model, the mice were divided into 6 groups as follows: the control group administered with PBS (Control, 5 mice), the group administered intraperitoneally with adriamycin (4 mg/kg/day) 3 times (ADR, 5 mice), the group administered orally with dunnione or β-lapachone from 3 days before the adriamycin treatment daily (20 mg/kg, 5 mice), and the group administered with dunnione or β-lapachone (20 mg/kg, 5 mice). 4 days after the final adriamycin treatment, analysis of the mice was performed.
# The present inventors established an animal model co-treated with three different anticancer drugs in this experiment. The anticancer drugs used herein were adriamycin (ADR), cyclophosphamide (CYP) and paclitaxel (PTX), which were indicated as ACP. […]
# A homogenate was prepared with the mouse hypothalamus extracted from the 4×ACP animal model prepared by the same manner as described in Example 8. Then, the expressions of the inflammatory cytokines TNF-α and IL-1β in the brain tissue were analyzed by ELISA.
structure (smiles),measurement,setting,value
"CC1OC2=C(C(=O)C(=O)c3ccccc32)C1(C)C (stereo not drawn) [dunnione, 2,3-dihydro-2,3,3-trimethyl naphtho [1,2-b]furan-4,5-dione]",increased F4/80 positive cells in the bone (femur),[1],significantly reduced
same,up-regulations of TNF-α and IL-1β at protein level in the hypothalamus,[2]; ELISA,significantly suppressed
same,up-regulations of TNF-α and IL-1β at RNA level in the hypothalamus,[2]; RT-PCR,significantly suppressed
